{
  "source": "paper PMC9652379",
  "about": "“Safety evaluations of a synthetic antimicrobial peptide administered intravenously in rats and dogs” (Scientific Reports, 2022)",
  "key": {"rats": {"system": "rats", "test": "Respiratory function in rats (whole body plethysmography)", "assay_type": "in vivo, rat", "protocol": "The possible side-effects of SET-M33 on respiratory function were evaluated after administration of the peptide as a single intravenous bolus at doses of 5, 9 and 15 mg/kg with vehicle (eight animals/group). Respiratory rate, tidal volume and minute volume were assessed. As in the case of neurological toxicity and the 4-week toxicity study, again the dose levels were selected on the basis DRF (above). Baclofen, a muscle relaxer and antispasmodic used to treat muscle pain, spasms and stiffness in people with multiple sclerosis or spinal cord injury or disease, was used as positive control. It was administered as a single intravenous injection at a dose of 15 mg/kg.\nWhole body, bias flow plethysmography equipment was used[51]. Respiratory parameters (respiratory rate, tidal volume and minute volume) were derived from the changes in pressure associated with the warming and humidification of the air breathed in by the animal. This was monitored by specific probes located in the plethysmograph chambers. Bias flow (room air) was set at approximately 2.5 L/min. On a day prior to the first day of dosing, all animals were habituated to the plethysmographs for approximately 2 h. The study was run over 4 days and 10 animals (two from each group) were examined each day. On the day of dosing, the animals were placed in the plethysmographs for pre-dose recording (session 1) of respiratory parameters for 60 min. Groups of 8 rats were then removed from the chambers and dosed by intravenous bolus injection with vehicle, SET-M33 or positive control. Immediately after dosing, the rats were placed in the whole body plethysmographs, where they could move about freely, to continuously record respiratory parameters for 4 h post-dose (undisturbed recording). Immediately after the last post-dose recording, the animals were killed humanely by a rising concentration of carbon dioxide. Death was confirmed by dislocation of the neck. Respiratory parameters were reported at the following time points: 0, 30, 60, 90, 120, 150, 180, 210 and 240 min. Time 0 coincided with the mean value of the last 20 min of data recorded in the 60-min pre-dose period. All other time points were the mean of 10-min recordings (an average of every 10 breaths) around each time point. Each post-dose time point was analysed separately by analysis of covariance. Factors in the model were group and day of data collection, with pre-dose values as covariate."}, "beagle dogs": {"system": "beagle dogs", "test": "Four-week toxicity study with 4-week recovery in dogs: survival, ECG, NOAEL", "assay_type": "in vivo, dog", "protocol": "Beagle dogs (5/sex/group) were dosed by intravenous infusion once daily for 1 h with 0 (0.9% sodium chloride for injection), 0.5, 1.5 or 4.0 mg/kg/day SET-M33 for four consecutive weeks. The doses were selected in the dog DRF study (above). The dose of 4 mg/kg/day was selected as the highest dose without macroscopic side effects in the DRF study, and was used to evaluate renal toxicity and its reversibility. The dose of 0.5 mg/kg/day was selected as the lowest dose, about one order of magnitude less than the highest dose. The dose of 1.5 mg/kg/day was selected as an approximately median mid-dose. On completion of 4 weeks of infusion, three animals/sex/group were euthanized and necropsied and the remaining two animals/sex/group were held for a 4-week drug free recovery period after which they were euthanized and necropsied. Blood samples were obtained from all animals on days 1 and 28 for toxicokinetic analysis.\nAnimals were observed daily for mortality and signs of severe toxic or pharmacological effects. […] Blood obtained via jugular venepuncture from anaesthetized dogs was used to analyse blood, coagulation and clinical chemistry parameters for 5 animals/sex/group pre-test and at termination of dosing and from 2 animals/sex/group at the end of recovery."}, "[1]": {"test": "Toxicokinetics in rats, 4 weeks daily iv slow bolus", "assay_type": "in vivo, rat", "details": "for AUC(0-t) / Cmax / tmax: iv", "protocol": "SET-M33 was administered intravenously as a slow bolus to Sprague Dawley rats once daily for 4 weeks at 0 (vehicle only), 5, 9 and 15 mg/kg/day (control group 3 animals/sex, treated groups 6 animals/sex). Blood samples were taken on day 1 and day 28. […] Mean plasma SET-M33 exposure increased in parallel with dose in males and females. […] Mean time to maximum plasma SET-M33 concentration (tmax) was 5 min post-dose for both times and sexes as expected for intravenous bolus administration. […] On day 28, female intermediate dose AUC0-t ratio was 1.7 times the theoretical ratio.\nBlood samples were drawn from the retro-orbital sinus under light isoflurane anaesthesia for determination of plasma SET-M33 levels. The samples were taken on days 1 and 28 of treatment at the following times: control group: pre-dose and 30 min; 5, 9 and 15 mg/kg/day-group: pre-dose, 5, 15, 30, 60 min and 24 h after administration. Blood samples were collected into polypropylene test tubes containing lithium heparin anticoagulant and kept at room temperature for no longer than 60 min until centrifuging (1600 g for 10 min at 2–8 °C). The plasma obtained from each sample was transferred to a fresh polypropylene test tubes, immediately frozen in dry ice and stored at − 20 °C ± 5. Plasma concentrations of SET-M33 were measured by a previously validated LC–MS/MS method. Toxicokinetic parameters were determined for mean plasma concentrations at each dose level and time point, according to the validated method and with WinNonlin software, version 6.3, in the Phoenix Suite version 1.3 (Pharsight Corporation, Mountain View, CA, USA)."}, "P. aeruginosa": {"system": "P. aeruginosa", "details": "cited from earlier work"}, "[2]": {"details": "female, Sprague Dawley, rat, in vivo, 5 mg/kg/day"}, "[3]": {"details": "male, Sprague Dawley, rat, in vivo, 5 mg/kg/day"}, "[4]": {"details": "male, Sprague Dawley, rat, in vivo, 9 mg/kg/day"}, "[5]": {"details": "male, Sprague Dawley, rat, in vivo, 15 mg/kg/day"}},
  "note": "Positions of bridges follow the written chain, without caps; N, C: chain ends. Non-standard residues stand in square brackets, D forms with d. Residues, ends and D or L forms follow the SMILES beside them. Chains are numbered I, II in the order given. βAla = NCCC(=O)O",
  "data": [
    {"smiles": "CC[C@H](C)[C@H](NC(=O)[C@H](CCCCN)NC(=O)[C@@H](N)CCCCN)C(=O)N[C@@H](CCCNC(=N)N)C(=O)N[C@H](C(=O)N[C@@H](CCCNC(=N)N)C(=O)N[C@@H](CC(C)C)C(=O)N[C@@H](CO)C(=O)N[C@@H](C)C(=O)NCCCC[C@H](NC(=O)[C@H](C)NC(=O)[C@H](CO)NC(=O)[C@H](CC(C)C)NC(=O)[C@H](CCCNC(=N)N)NC(=O)[C@@H](NC(=O)[C@H](CCCNC(=N)N)NC(=O)[C@@H](NC(=O)[C@H](CCCCN)NC(=O)[C@@H](N)CCCCN)[C@@H](C)CC)C(C)C)C(=O)NCCCC[C@H](NC(=O)[C@H](CCCCNC(=O)[C@H](C)NC(=O)[C@H](CO)NC(=O)[C@H](CC(C)C)NC(=O)[C@H](CCCNC(=N)N)NC(=O)[C@@H](NC(=O)[C@H](CCCNC(=N)N)NC(=O)[C@@H](NC(=O)[C@H](CCCCN)NC(=O)[C@@H](N)CCCCN)[C@@H](C)CC)C(C)C)NC(=O)[C@H](C)NC(=O)[C@H](CO)NC(=O)[C@H](CC(C)C)NC(=O)[C@H](CCCNC(=N)N)NC(=O)[C@@H](NC(=O)[C@H](CCCNC(=N)N)NC(=O)[C@@H](NC(=O)[C@H](CCCCN)NC(=O)[C@@H](N)CCCCN)[C@@H](C)CC)C(C)C)C(=O)NCCC(=O)O)C(C)C", "note": "[SET-M33] (I: H-KKIRVRLSAKK[βAla]-OH / II: H-KKIRVRLSAK / III: H-KKIRVRLSA / IV: H-KKIRVRLSA; amide I:10-IV:C, I:11-II:C, II:10-III:C (inferred); N-terminus and C-terminus assumed)", "values": [
      {"measurement": "minute volume vs vehicle", "setting": "rats; rats, 15 mg/kg single iv bolus, 30 min post-dose, subsided by 60 min", "result": "statistically significant increase"},
      {"measurement": "effects on respiratory rate, tidal volume or minute volume", "setting": "rats; rats, 5, 9 and 15 mg/kg single iv bolus, 4 h post-dose, n=8/group", "result": "did not produce any statistically significant adverse effects"},
      {"measurement": "effect on heart function, ECG parameters (heart rate, PR, QRS, QT and QTc intervals)", "setting": "beagle dogs; beagle dogs, daily iv infusion at ≥ 0.5 mg/kg/day, males and females", "result": "did not produce any observable effect on heart function"},
      {"measurement": "survival", "setting": "beagle dogs; dogs, 0.5, 1.5 or 4.0 mg/kg/day 1-h iv infusion, 4 weeks + 4-week recovery", "result": "All animals survived until their scheduled termination"},
      {"measurement": "AUC(0-t)", "setting": "[1]; [2]", "result": 1218, "unit": "ng·h/mL"},
      {"measurement": "Cmax", "setting": "[1]; [2]", "result": 4103, "unit": "ng/mL"},
      {"measurement": "AUC(0-t)", "setting": "[1]; female, Sprague Dawley, rat, in vivo, 5 mg/kg/day, AUC0-t", "result": 663, "unit": "ng·h/mL"},
      {"measurement": "Cmax", "setting": "[1]; female, Sprague Dawley, rat, in vivo, 5 mg/kg/day, Cmax", "result": 2110, "unit": "ng/mL"},
      {"measurement": "AUC(0-t)", "setting": "[1]; [3]", "result": 938, "unit": "ng·h/mL"},
      {"measurement": "Cmax", "setting": "[1]; [3]", "result": 3017, "unit": "ng/mL"},
      {"measurement": "tmax", "setting": "[1]; [3]", "result": 5, "unit": "min"},
      {"measurement": "AUC(0-t)", "setting": "[1]; male, Sprague Dawley, rat, in vivo, 5 mg/kg/day, AUC0-t", "result": 692, "unit": "ng·h/mL"},
      {"measurement": "Cmax", "setting": "[1]; male, Sprague Dawley, rat, in vivo, 5 mg/kg/day, Cmax", "result": 2230, "unit": "ng/mL"},
      {"measurement": "AUC(0-t)", "setting": "[1]; [4]", "result": 1819, "unit": "ng·h/mL"},
      {"measurement": "Cmax", "setting": "[1]; [4]", "result": 5890, "unit": "ng/mL"},
      {"measurement": "tmax", "setting": "[1]; [4]", "result": 5, "unit": "min"},
      {"measurement": "AUC(0-t)", "setting": "[1]; male, Sprague Dawley, rat, in vivo, 9 mg/kg/day, AUC0-t", "result": 1430, "unit": "ng·h/mL"},
      {"measurement": "Cmax", "setting": "[1]; male, Sprague Dawley, rat, in vivo, 9 mg/kg/day, Cmax", "result": 4560, "unit": "ng/mL"},
      {"measurement": "AUC(0-t)", "setting": "[1]; [5]", "result": 2734, "unit": "ng·h/mL"},
      {"measurement": "Cmax", "setting": "[1]; [5]", "result": 8170, "unit": "ng/mL"},
      {"measurement": "tmax", "setting": "[1]; [5]", "result": 5, "unit": "min"},
      {"measurement": "AUC(0-t)", "setting": "[1]; male, Sprague Dawley, rat, in vivo, 15 mg/kg/day, AUC0-t", "result": 2240, "unit": "ng·h/mL"},
      {"measurement": "Cmax", "setting": "[1]; male, Sprague Dawley, rat, in vivo, 15 mg/kg/day, Cmax", "result": 6040, "unit": "ng/mL"},
      {"measurement": "mean tmax", "setting": "[1]; rat, in vivo", "result": 5, "unit": "min"},
      {"measurement": "quantifiable plasma concentrations until, post-dose", "setting": "[1]; rat, in vivo", "result": 1, "unit": "h"},
      {"measurement": "intermediate dose AUC0-t ratio relative to the theoretical ratio", "setting": "[1]; rat, in vivo, 9 mg/kg/day", "result": 1.7, "unit": "times"},
      {"measurement": "tmax", "setting": "[1]; rat, in vivo, 5 mg/kg/day", "result": 5, "unit": "min"},
      {"measurement": "tmax", "setting": "[1]; rat, in vivo, 9 mg/kg/day", "result": 5, "unit": "min"},
      {"measurement": "tmax", "setting": "[1]; rat, in vivo, 15 mg/kg/day", "result": 5, "unit": "min"},
      {"measurement": "mean AUC0-t ratio, low vs. intermediate dose (theoretical ratio 1.8)", "setting": "[1]; rats, 5 vs 9 mg/kg/day, day 1", "result": 2},
      {"measurement": "mean Cmax ratio, low vs. intermediate dose (theoretical ratio 1.8)", "setting": "[1]; rats, 5 vs 9 mg/kg/day, day 1", "result": "1.7–2"},
      {"measurement": "mean AUC0-t ratio, low vs. high dose (theoretical ratio 3)", "setting": "[1]; rats, 5 vs 15 mg/kg/day, day 1", "result": "2.9–3.2"},
      {"measurement": "mean Cmax ratio, low vs. high dose (theoretical ratio 3)", "setting": "[1]; rats, 5 vs 15 mg/kg/day, day 1", "result": 2.7},
      {"measurement": "MIC50", "setting": "P. aeruginosa", "result": 1.4, "unit": "µM"},
      {"measurement": "MIC90", "setting": "P. aeruginosa", "result": 1.4, "unit": "µM"}
    ]}
  ]
}
